Where two headings read alike, the source gives them in different places. Marks after values point to notes of the source that are not given here. One block for each molecule: values may come before it. Bridge positions count the residues as written; N and C are the ends. Square brackets hold non-standard residues; d marks the D form. Peptide text beside a SMILES is read from it. * marks the point of attachment. DOTA = O=C(O)CN1CCN(CC(=O)O)CCN(CC(=O)*)CCN(CC(=O)O)CC1; dPhe(4-NHCONH2) = NC(=O)Nc1ccc(C[C@@H](N)C(=O)O)cc1; Dihydroorotyl(S) = O=C1C[C@@H](C(=O)*)NC(=O)N1; Phe(4-Cl) = N[C@@H](Cc1ccc(Cl)cc1)C(=O)O; Phe(4-NH2) = Nc1ccc(C[C@H](N)C(=O)O)cc1
Tests used:
SSTR2 = system: SSTR2; set-up: method as in Hou et al. [2022]; Zhu et al. [2020]; Fani et al. [2017]; conditions: compared to DOTA-TATE; ref Hou et al. [2022]; Zhu et al. [2020]; Fani et al. [2017]; cited from earlier work
in vitro = in vitro ADME; conditions: mouse, serum
Method: (§1) Haarlerbergweg, The Netherlands) (250 and 100 µL, respectively) at 37 °C. […] In mouse serum, the proteins were precipitated by adding an aliquot of the radiotracer to an equal volume of acetonitrile. The vial was vortexed vigorously and centrifuged for 20 min at 10,000 rpm. Stability studies were monitored by radio-HPLC (Additional file 1: Figs. S5 and S6).

[1] = in vivo; cited from earlier work
[2] = assay type: physicochemical; conditions: 37 °C, radio-HPLC, n = 1
Method: as §1

SMILES: C[C@@H](O)[C@@H]1NC(=O)[C@H](CCCCN)NC(=O)[C@@H](Cc2ccc(NC(N)=O)cc2)NC(=O)[C@H](Cc2ccc(NC(=O)[C@@H]3CC(=O)NC(=O)N3)cc2)NC(=O)[C@H](NC(=O)[C@H](Cc2ccc(Cl)cc2)NC(=O)CN2CCN(CC(=O)O)CCN(CC(=O)O)CCN(CC(=O)O)CC2)CSSC[C@@H](C(=O)N[C@H](Cc2ccc(O)cc2)C(N)=O)NC1=O [DOTA-JR11] ({DOTA}-[Phe(4-Cl)][dC][Phe(4-NH2)](Dihydroorotyl(S))[dPhe(4-NHCONH2)]KTC[dY]-NH2; disulfide 2-7; C-terminus assumed)
- binding affinity to SSTR2 (SSTR2): lower binding affinity

SMILES: C[C@@H](O)[C@@H]1NC(=O)[C@H](CCCCN)NC(=O)[C@@H](Cc2ccc(NC(N)=O)cc2)NC(=O)[C@H](Cc2ccc(NC(=O)[C@@H]3CC(=O)NC(=O)N3)cc2)NC(=O)[C@H](NC(=O)[C@H](Cc2ccc(Cl)cc2)NC(=O)CN2CCN(CC(=O)O)CCN(CC(=O)O)CCN(CC(=O)O)CC2)CSSC[C@@H](C(=O)N[C@H](Cc2ccc(O)cc2)C(N)=O)NC1=O [[^177Lu]Lu-DOTA-JR11, metal not drawn] ({DOTA}-[Phe(4-Cl)][dC][Phe(4-NH2)](Dihydroorotyl(S))[dPhe(4-NHCONH2)]KTC[dY]-NH2; disulfide 2-7 (inferred); C-terminus assumed)
- remaining at 2 h, 12 MBq/mL (in vitro): 94.5%
- remaining at 24 h, 12 MBq/mL (in vitro): 93.7%

SMILES: C[C@@H](O)[C@@H]1NC(=O)[C@H](CCCCN)NC(=O)[C@@H](Cc2ccc(NC(N)=O)cc2)NC(=O)[C@H](Cc2ccc(NC(=O)[C@@H]3CC(=O)NC(=O)N3)cc2)NC(=O)[C@H](NC(=O)[C@H](Cc2ccc(Cl)cc2)NC(=O)CN2CCN(CC(=O)O)CCN(CC(=O)O)CCN(CC(=O)O)CC2)CSSC[C@@H](C(=O)N[C@H](Cc2ccc(O)cc2)C(N)=O)NC1=O [[^177Lu]Lu-DOTA-JR11] [metal not drawn] ({DOTA}-[Phe(4-Cl)][dC][Phe(4-NH2)](Dihydroorotyl(S))[dPhe(4-NHCONH2)]KTC[dY]-NH2; disulfide 2-7 (inferred); C-terminus assumed)
- hematologic toxicity [1]: severe grade 4 hematologic toxicity
- PBS (%) intact radiolabeled peptide ([2]; 2 h, 1.2 MBq in 200 µL PBS): 96.5%
- PBS (%) intact radiolabeled peptide ([2]; 24 h, 1.2 MBq in 200 µL PBS): 96.8%

More lines, now with the values ahead:

- remaining at 22 h, 200 kBq/mL (in vitro): 80.9%
- remaining at 24 h, 200 kBq/mL (in vitro): 81.4%
- remaining at 27 h, 200 kBq/mL (in vitro): 81%
SMILES: C[C@@H](O)[C@@H]1NC(=O)[C@H](CCCCN)NC(=O)[C@@H](Cc2ccc(NC(N)=O)cc2)NC(=O)[C@H](Cc2ccc(NC(=O)[C@@H]3CC(=O)NC(=O)N3)cc2)NC(=O)[C@H](NC(=O)[C@H](Cc2ccc(Cl)cc2)NC(=O)CN2CCN(CC(=O)O)CCN(CC(=O)O)CCN(CC(=O)O)CC2)CSSC[C@@H](C(=O)N[C@H](Cc2ccc(O)cc2)C(N)=O)NC1=O [[^225Ac]Ac-DOTA-JR11, metal not drawn] ({DOTA}-[Phe(4-Cl)][dC][Phe(4-NH2)](Dihydroorotyl(S))[dPhe(4-NHCONH2)]KTC[dY]-NH2; disulfide 2-7 (inferred); C-terminus assumed)

- PBS (%) intact radiolabeled peptide ([2]; radiolabeling condition 1, 22 h, 50 kBq in 500 µL PBS): 76.9^a %
- PBS (%) intact radiolabeled peptide ([2]; radiolabeling condition 2 (without L-melatonin), 24 h, 50 kBq in 500 µL PBS): 56.6^b %
- PBS (%) intact radiolabeled peptide ([2]; radiolabeling condition 3 (with L-melatonin), 27 h, 50 kBq in 500 µL PBS): 81.0^c %
SMILES: C[C@@H](O)[C@@H]1NC(=O)[C@H](CCCCN)NC(=O)[C@@H](Cc2ccc(NC(N)=O)cc2)NC(=O)[C@H](Cc2ccc(NC(=O)[C@@H]3CC(=O)NC(=O)N3)cc2)NC(=O)[C@H](NC(=O)[C@H](Cc2ccc(Cl)cc2)NC(=O)CN2CCN(CC(=O)O)CCN(CC(=O)O)CCN(CC(=O)O)CC2)CSSC[C@@H](C(=O)N[C@H](Cc2ccc(O)cc2)C(N)=O)NC1=O [[^225Ac]Ac-DOTA-JR11] [metal not drawn] ({DOTA}-[Phe(4-Cl)][dC][Phe(4-NH2)](Dihydroorotyl(S))[dPhe(4-NHCONH2)]KTC[dY]-NH2; disulfide 2-7 (inferred); C-terminus assumed)
